{"source": "paper PMC5104769", "about": "“Concentration-Dependent Dual Mode of Zn Action at Serotonin 5-HT1A Receptors: In Vitro and In Vivo Studies” (Molecular neurobiology, 2015)", "key": {"Body temperature in mice": {"test": "Body temperature in mice", "format": "in vivo, mouse", "settings": "Zn 2 and 5 mg/kg i.p., 30 and 60 min after administration", "protocol": "The experiments were performed on male Albino Swiss mice (23-25 g) and Sprague Dawley rats (200-250 g) from Charles River, Germany as well as […]-flx-YFP mice from Jackson Labs, Bangor ME and the Hen lab, respectively. The animals were kept under standard laboratory conditions with respect to lighting (light phase 7:00-19:00) and temperature (19-21 °C). Food and water were freely available. Each experimental group consisted of eight to ten animals. All of the animals were experimentally naive and were used only once in each test. The experiments were performed during the light period (9:00-14:00 h). All of the procedures were conducted according to the guidelines of the National Institutes of Health Animal Care and Use Committee and were approved by the Ethics Committees of the Institute of Pharmacology, Polish Academy of Sciences in Krakow and the Animal Care Committee, University of Ottawa. […] Controls were treated with the appropriate diluent, which was indicated as VEH on the graphs and in the tables. […] The results were expressed as a change in body temperature with respect to the basal body temperature, which was measured at the beginning of the experiments."}, "β2 adrenergic receptors": {"system": "β2 adrenergic receptors", "set-up": "method as in PMID 11752207", "settings": "cited from earlier work"}, "[1]": {"system": "5-HT1A autoreceptor KO mice", "test": "Forced swim test (FST) in wild-type and 5-HT1A autoreceptor KO mice", "format": "in vivo, mouse", "settings": "Zn 5 mg/kg 30 min before FST", "description": "(§1) A conditional knockout approach was used to eliminate the 5-HT1AR in the raphe nuclei in adult mice. To create the conditional 5-HT1AR knockout mice, a TPH2-Cre-ER^T2 mouse line was crossed with a flx-5-HT1A-YFP mouse line. The TPH2-Cre-ER^T2 confers specificity such that only serotonin neurons, which express tryptophan hydroxylase 2 (TPH2), can express Cre recombinase to knockout the 5-HT1AR gene and allow for […] expression. Once the mice reached adulthood (approximately 5–6 postnatal weeks), tamoxifen (180 mg/kg) was injected i.p. every day for five consecutive days (the tamoxifen binds to the ER^T2 domain and enables Cre to enter the nucleus where it can excise the 5-HT1AR gene, allowing for YFP expression as a marker of recombination). The mice were then left undisturbed for at least 14 days to allow for recombination and the turnover of endogenous 5-HT1ARs.\nThe behaviour of the mice in the water was recorded using a video camera. The test was performed under red lighting. The cylinder was filled with almost 4 l of water, to a depth that exceeded the distance to which the tail could extend, so the mouse could not balance on its tail at the bottom of the cylinder. […] The mice were placed in the individual glass cylinder (22 cm diameter×37 cm high) for a standard 6-min test; however, the total duration of immobility from the last 4 min of the test was analysed. […]"}, "Body temperature in rats": {"test": "Body temperature in rats", "format": "in vivo, rat", "settings": "Zn: 30 min at 7.5 and 11.5 mg/kg, 60 min at 5, 7.5 and 11.5 mg/kg", "protocol": "The experiments were performed on male Albino Swiss mice (23–25 g) and Sprague Dawley rats (200–250 g) from Charles River, Germany as well as TPH2-Cre-ER^T2 x flx-5-HT1A-flx-YFP mice from Jackson Labs, Bangor ME and the Hen lab, respectively. The animals were kept under standard laboratory conditions with respect to lighting (light phase 7:00–19:00) and temperature (19–21 °C). Food and water were freely available. Each experimental group consisted of eight to ten animals. All of the animals were experimentally naive and were used only once in each test. The experiments were performed during the light period (9:00–14:00 h). All of the procedures were conducted according to the guidelines of the National Institutes of Health Animal Care and Use Committee and were approved by the Ethics Committees of the Institute of Pharmacology, Polish Academy of Sciences in Krakow and the Animal Care Committee, University of Ottawa. […]\nThe effects of Zn (2, 5, 7.5 and 11.5 mg Zn/kg for rats and 2 and 5 mg/kg for mice, given as a Zn hydroaspartate), 8-OH-DPAT (5 mg/kg) and WAY-100635 (0.1mg/kg) on rectal body temperature were recorded 30 and 60 min after their acute administration. The results were expressed as a change in body temperature with respect to the basal body temperature, which was measured at the beginning of the experiments."}, "Sprague Dawley rats": {"system": "Sprague Dawley rats", "test": "5-HT behavioural syndrome (flat body posture, forepaw treading) in rats", "format": "in vivo, rat", "settings": "for behavioural score FBP (A) VEH / behavioural score FT (A) VEH: max score 10", "protocol": "The experiments were performed on male Albino Swiss mice (23–25 g) and Sprague Dawley rats (200–250 g) from Charles River, Germany as well as TPH2-Cre-ER^T2 x flx-5-HT1A-flx-YFP mice from Jackson Labs, Bangor ME and the Hen lab, respectively. The animals were kept under standard laboratory conditions with respect to lighting (light phase 7:00–19:00) and temperature (19–21 °C). Food and water were freely available. Each experimental group consisted of eight to ten animals. All of the animals were experimentally naive and were used only once in each test. The experiments were performed during the light period (9:00–14:00 h). All of the procedures were conducted according to the guidelines of the National Institutes of Health Animal Care and Use Committee and were approved by the Ethics Committees of the Institute of Pharmacology, Polish Academy of Sciences in Krakow and the Animal Care Committee, University of Ottawa.\nZn (all doses refer to mg Zn/kg) was given as either Zn hydroaspartate (Farmapol, Poland) or Zn chloride (Sigma-Aldrich) and was dissolved in 0.9 % NaCl and administered intraperitoneally (i.p.). 8-OH-DPAT and WAY-100635 were dissolved in aqua pro-injection and were administered subcutaneously (s.c.). Controls were treated with the appropriate diluent, which was indicated as VEH on the graphs and in the tables.\nThe experiments were conducted according to previously published procedure, with a modification to the ranked intensity scale. Briefly, the rats were individually placed in cages (30×25×25 cm) 5 min before tested compounds were injected. Forepaw treading (FT) and flat body posture (FBP) were scored using a ranked intensity scale, where 0=absent, 1=equivocal and 2=present. The Zn (2, 5, 7.5 and 11.5 mg Zn/kg, given as a Zn hydroaspartate)-induced behavioural syndrome was scored for each animal 3, 6, 9, 12 and 15 min after the Zn treatment. Each observation session lasted for 45 s. The maximum score, which was summed over 5 observation periods, was 10 for each symptom/rat. The effect of Zn on the behavioural syndrome induced by 8-OH-DPAT (5 mg/kg) was scored using the same scale. Zn was administered 60 min before 8-OH-DPAT, and the animals were scored 3, 6, 9, 12 and 15 min after the 8-OH-DPAT treatment."}, "[2]": {"test": "Body temperature in wild-type and 5-HT1A autoreceptor KO mice", "format": "in vivo, mouse", "settings": "Zn 5 mg/kg (Zn chloride), 30 and 60 min", "description": "as §1\nA separate experiment was performed to measure the effect of Zn on rectal body temperature in wild-type and 5-HT1A autoreceptor KO mice; however, in this experiment, only the higher dose of Zn (5 mg Zn/kg; Zn chloride, Sigma) was used."}, "[3]": {"settings": "Zn 2 mg/kg 60 min before 8-OH-DPAT 5 mg/kg"}, "[4]": {"settings": "Zn 5 mg/kg 60 min before 8-OH-DPAT 5 mg/kg"}, "[5]": {"settings": "Zn 7.5 mg/kg 60 min before 8-OH-DPAT 5 mg/kg"}, "[6]": {"settings": "Zn 11.5 mg/kg 60 min before 8-OH-DPAT 5 mg/kg"}}, "data": [{"smiles": "[Zn+2]", "note": "[Zn, Zinc]", "values": [{"measurement": "change in body temperature", "setting": "Body temperature in mice", "result": "significantly and dose-dependently decreased body temperature"}, {"measurement": "effect on agonist affinity", "setting": "β2 adrenergic receptors; 5 μM of Zn", "result": "enhanced agonist affinity"}, {"measurement": "effect on antagonist binding", "setting": "β2 adrenergic receptors; 500 μM of Zn", "result": "inhibited antagonist binding"}, {"measurement": "decrease in the immobility time", "setting": "[1]; 5-HT1A autoreceptor KO mice, vs VEH-treated KO mice", "result": 30, "unit": "%"}, {"measurement": "immobility time in the FST", "setting": "[1]; wild-type mice", "result": "significant decrease in immobility time"}, {"measurement": "change in body temperature", "setting": "Body temperature in rats", "result": "significantly decreased the body temperature"}, {"measurement": "effect on 8-OH-DPAT-induced FBP and FT (in words)", "setting": "Sprague Dawley rats; FBP at 11.5 mg/kg, FT at 7.5 and 11.5 mg/kg Zn", "result": "blocked the 8-OH-DPAT-induced FBP and FT"}, {"measurement": "behavioural score FBP (B) 8-OH-DPAT", "setting": "Sprague Dawley rats; [3]", "result": "7.7±0.3"}, {"measurement": "behavioural score FT (B) 8-OH-DPAT", "setting": "Sprague Dawley rats; [3]", "result": "7.1±0.6"}, {"measurement": "behavioural score FBP (A) VEH", "setting": "Sprague Dawley rats; Zn 2 mg/kg alone", "result": "0.2±0.2"}, {"measurement": "behavioural score FT (A) VEH", "setting": "Sprague Dawley rats; Zn 2 mg/kg alone", "result": "0.3±0.2"}, {"measurement": "behavioural score FBP (B) 8-OH-DPAT", "setting": "Sprague Dawley rats; [4]", "result": "7.5±0.8"}, {"measurement": "behavioural score FT (B) 8-OH-DPAT", "setting": "Sprague Dawley rats; [4]", "result": "7.5±0.5"}, {"measurement": "behavioural score FBP (A) VEH", "setting": "Sprague Dawley rats; Zn 5 mg/kg alone", "result": "0.3±0.3"}, {"measurement": "behavioural score FT (A) VEH", "setting": "Sprague Dawley rats; Zn 5 mg/kg alone", "result": "0.2±0.2"}, {"measurement": "behavioural score FBP (B) 8-OH-DPAT", "setting": "Sprague Dawley rats; [5]", "result": "7.0±0.3"}, {"measurement": "behavioural score FT (B) 8-OH-DPAT", "setting": "Sprague Dawley rats; [5]", "result": "5.0±0.6"}, {"measurement": "behavioural score FBP (A) VEH", "setting": "Sprague Dawley rats; Zn 7.5 mg/kg alone", "result": "0.5±0.5"}, {"measurement": "behavioural score FT (A) VEH", "setting": "Sprague Dawley rats; Zn 7.5 mg/kg alone", "result": "0.2±0.2"}, {"measurement": "behavioural score FBP (B) 8-OH-DPAT", "setting": "Sprague Dawley rats; [6]", "result": "3.4±0.6"}, {"measurement": "behavioural score FT (B) 8-OH-DPAT", "setting": "Sprague Dawley rats; [6]", "result": "0.4±0.2"}, {"measurement": "behavioural score FBP (A) VEH", "setting": "Sprague Dawley rats; Zn 11.5 mg/kg alone", "result": "0.5±0.2"}, {"measurement": "behavioural score FT (A) VEH", "setting": "Sprague Dawley rats; Zn 11.5 mg/kg alone", "result": "0.2±0.2"}, {"measurement": "induction of FBP or FT (in words)", "setting": "Sprague Dawley rats; Zn 2, 5, 7.5 and 11.5 mg/kg alone", "result": "did not induce FBP or FT"}, {"measurement": "change in body temperature", "setting": "[2]", "result": "decreased the body temperature of the wild-type mice"}]}]}
